# Data as given in EPA's ToxValDB 9.5 (doi:10.2903/j.efsa.2005.34ar).
# Columns and labels:
# Aphidius rhopalosiphi = assay: LR50; higher = less toxic; details: not reported; duration: 14 days; mortality
# Typhlodromus pyri = assay: LR50; higher = less toxic; details: acute; duration: 14 days; mortality
# Lepomis macrochirus = details: acute; duration: 96 hours; mortality
# Daphnia magna = details: chronic/long-term; duration: 21 days; reproduction
# Apis mellifera = details: acute, mortality
# Canidae = details: chronic; duration: 1 years; oral; Dog Other; clinical signs
# Oncorhynchus mykiss = details: chronic/long-term; duration: 21 days
# Tagia sp. = details: acute; mortality
smiles,measurement,setting,value
C#CCOC(=O)[C@@H](C)Oc1ccc(Oc2ncc(Cl)cc2F)cc1 [Clodinafop-propargyl],LR50,Aphidius rhopalosiphi,3.1 g/ha
same,LR50,Typhlodromus pyri,20 g/ha
same,LC50,"Colinus virginianus; acute, oral, diet, mortality",> 980 mg/kg-day
same,LD50,"Colinus virginianus; acute, oral, mortality",1360 mg/kg
same,NOEC,Colinus virginianus; reproduction developmental,43 mg/kg-day
same,LC50,Lepomis macrochirus,0.21 µg/mL
same,NOEC,Daphnia magna,0.23 mg/L
same,LD50,Apis mellifera; dermal,40.9 µg/piece
same,LD50,"Apis mellifera; duration: 48 hours, oral, unspecified",> 93.7 µg/piece
same,NOAEL,Canidae,3.4 mg/kg-day
same,NOEC,Oncorhynchus mykiss,0.1 mg/L
same,LD50,"Rattus norvegicus; acute, oral, M, mortality",1390 mg/kg
same,NOAEL,"Rattus norvegicus; chronic, duration: 2 years, oral, clinical signs",0.32 mg/kg-day
same,NOAEL,"Rattus norvegicus; developmental, development",5 mg/kg-day
same,NOAEL,"Rattus norvegicus; reproduction developmental, reproduction",4.63 mg/kg-day
same,LC50,Tagia sp.,197 mg/kg
